According to patent US4008331A, “Antidepressant 1,1a,6,10b-tetrahydrodibenzo-[a,e]-cyclopropa-[c]-cyclohepten-6-substitu ted oximes” (E. I. Du Pont de Nemours and Company, priority 1976, dated 1977):
Counter-ions that a name gives are not always drawn. Like-named read-outs stand apart in the source and are kept apart here.

Tests used:
[1] = Hydrolytic stability in 0.5M hydrochloric acid at 25° for 20 hrs (NMR of residue); assay type: physicochemical
Method: For example, a solution of 0.6 g of N-(2-methylaminoethyl)-1,1a,6,10b-tetrahydrodibenzo[a,e]cyclopropa[c]cyclohepten-6-imine in 20 ml of 0.5M hydrochloric acid was stirred at 25° for 20 hrs. The solution was cooled and 10 ml of 10% sodium hydroxide solution was added, and the oil was twice extracted with a solution of 25% methylene chloride in ether. The combined organic extracts were thoroughly washed with saturated brine, dried and solvent removed. The NMR spectrum of the residue (0.5 g) indicated about 40% decomposition of the imine to the ketone occurred.
This stability to hydrolysis is advantageous in preparation, storage, and use of pharmaceutical dosage forms.

[2] = system: tetrabenazine-induced depression in mice; assay: Antagonism of tetrabenazine-induced sedation and depression in mice, orally at 1 hour post-drug; assay type: in vivo, Carworth CF1 S female mice; conditions: for ED50: Mus musculus, po, 1 h
Method: Relief from ptosis was recorded when exactly 2 seconds after placing the mouse facing the observer, lid closure was less than 50% in both eyes.

[3] = mice, oral, 1 hour post-drug, tetrabenazine 32 mg/kg intraperitoneally 30 minutes after compound, read-out: ED50 for prevention of exploratory loss
[4] = mice, oral, 1 hour post-drug, tetrabenazine 32 mg/kg intraperitoneally 30 minutes after compound, read-out: ED50 for prevention of ptosis
[5] = mice, oral, 1 hour post-drug, tetrabenazine 32 mg/kg intraperitoneally 30 minutes after compound, 60 min
[6] = mice, oral, 1 hour post-drug, tetrabenazine 32 mg/kg intraperitoneally 30 minutes after compound, hydrochloride, 60 min

| Compound | ED50 [2, 3] | ED50 [2, 4] | also measured |
| --- | --- | --- | --- |
| CNCCN=C1c2ccccc2C2CC2c2ccccc21 (centres unmarked) [N-(2-methylaminoethyl)-1,1a,6,10b-tetrahydrodibenzo[a,e]cyclopropa[c]cyclohepten-6-imine, reference compound] | – | – | degraded at 20 h ([1]; 0.5 m hcl, 0.6 g in 20 ml of 0.5M hydrochloric acid, by NMR, read-out: decomposition of the imine to the ketone): ~40% |
| CNCCON=C1c2ccccc2C2CC2c2ccccc21 (centres unmarked) [H CH2 CH2 NHCH3, 1,1a,6,10b-Tetrahydrodibenzo[a,e]cyclopropa[c]cyclohepten-6-one 0-[2-(methylamino)ethyl]oxime] | 1.9 mg/kg | 0.33 mg/kg | decomposition (in words) ([1]; same procedure: 0.5M hydrochloric acid): no detectable decomposition |
| c1ccc2c(c1)C(=NOCCN1CCCC1)c1ccccc1C1CC21 (centres unmarked) | 10.4 mg/kg | 4.8 mg/kg | – |
| NCCON=C1c2ccccc2C2CC2c2ccccc21 (centres unmarked) [H CH2 CH2 NH2 . HCl] | – | 0.09 mg/kg | ED50 for prevention of exploratory loss [2, 5]: 0.10 mg/kg |
| NCCON=C1c2ccccc2C2CC2c2ccccc21 (centres unmarked) [H CH2 CH2 NH2, 1,1a,6,10b-Tetrahydrodibenzo[a,e]cyclopropa[c]cyclohepten-6-one 0-(2-aminoethyl)oxime] | – | – | ED50 for prevention of ptosis ([2]; mice, oral, 1 hour post-drug, tetrabenazine 32 mg/kg intraperitoneally 30 minutes after compound): 0.09 mg/kg; ED50 for prevention of exploratory loss [2, 5]: 0.25 mg/kg |
| CC(C)N(CCON=C1c2ccccc2C2CC2c2ccccc21)C(C)C (centres unmarked) [H CH2 CH2 N[CH(CH3)2]2, 1,1a,6,10b-Tetrahydrodibenzo[a,e]cyclopropa[c]cyclohepten-6-one 0-[2-(diisopropylamino)ethyl]oxime] | 5.2 mg/kg | 3.3 mg/kg | – |
| CN(C)CCCN1c2ccccc2CCc2ccccc21 [imipramine, reference compound] | – | – | ED50 ([2]; read-out: ED50 for prevention of exploratory loss): 3 mg/kg; ED50 ([2]; read-out: ED50 for prevention of ptosis): 2.5 mg/kg |
| c1ccc2c(c1)C(=NOCCN1CCCCC1)c1ccccc1C1CC21 (centres unmarked) | 4.7 mg/kg | 1.7 mg/kg | – |
| CN(C)CCON=C1c2ccccc2C2CC2c2ccccc21 (centres unmarked) [H CH2 CH2 N(CH3)2 . HCl, 1,1a,6,10b-Tetrahydrodibenzo[a,e]cyclopropa[c]cyclohepten-6-one 0-[2-(dimethylamino)ethyl]oxime hydrochloride] | – | – | ED50 for prevention of exploratory loss [2, 6]: 1.4 mg/kg; ED50 for prevention of ptosis [2, 6]: 0.5 mg/kg |
| CN(C)CCC=C1c2ccccc2CCc2ccccc21 [amitriptyline, reference compound] | 4.7 mg/kg | 1.7 mg/kg | – |
| CN(C)CCON=C1c2ccccc2C2CC2c2ccccc21 (centres unmarked) [H CH2 CH2 N(CH3)2, 1,1a,6,10b-Tetrahydrodibenzo[a,e]cyclopropa[c]cyclohepten-6-one 0-[2-(dimethylamino)ethyl]oxime] | 2.3 mg/kg | 0.4 mg/kg | – |
| c1ccc2c(c1)C(=NOCCN1CCOCC1)c1ccccc1C1CC21 (centres unmarked) | 3 mg/kg | 1 mg/kg | – |
| CN(C)CCCON=C1c2ccccc2C2CC2c2ccccc21 (centres unmarked) [H CH2 CH2 CH2 N(CH3)2, 1,1a,6,10b-Tetrahydrodibenzo[a,e]cyclopropa[c]cyclohepten-6-one 0-[3-(dimethylamino)propyl]oxime] | 15.6 mg/kg | 9 mg/kg | – |
